Data set [1] has as its system Mus musculus. The data set is described as follows: Anticonvulsant activity in CF1 albino mouse assessed as inhibition of maximal electroshock-induced seizures at 300 mg/kg, ip after 0.5 hrs. Also on record: dose 300 mg/kg. The data set is classed as functional, organism-based.
Data set [2] has as its system Mus musculus. The data set is described as follows: Anticonvulsant activity in CF1 albino mouse assessed as inhibition of maximal electroshock-induced seizures at 300 mg/kg, ip after 4 hrs. Also on record: dose 300 mg/kg. The data set is classed as functional, organism-based. (Protection in the maximal electroshock model is a classic sign of anticonvulsant action.)

The subject of data set [3] is Mus musculus. Description: Neurotoxicity in CF1 albino mouse assessed as ability to maintain equilibrium for 1 min on […] at 300 mg/kg, ip after 0.5 hrs by rotarod test. The data set is classed as toxicity, organism-based. Also on record: dose 300 mg/kg, route intraperitoneal. Conditions: in vivo.
Data set [4] deals with Mus musculus. The data set is described as follows: Neurotoxicity in CF1 albino mouse assessed as ability to maintain equilibrium for 1 min on […] at 300 mg/kg, ip after 4 hrs by rotarod test. Also on record: dose 300 mg/kg, route intraperitoneal. Conditions: in vivo. The data set is classed as toxicity, organism-based.
The test system of data set [5] is Mus musculus. The data set is described as follows: Neurotoxicity in ip dosed CF1 albino mouse assessed as ability to maintain equilibrium for 1 min on […] after 0.5 hrs by rotarod test. As to conditions: in vivo. The data set is classed as toxicity, organism-based. On the technique in general: In the rotarod test animals must keep their balance on a rotating rod.

For data set [6], the system named is Mus musculus. The data set is described as follows: Anticonvulsant activity in CF1 albino mouse assessed as protection against maximal electroshock-induced seizures at 30 mg/kg, po after 1 hr. The data set is classed as functional.
In data set [7] the test system is Mus musculus. Description: Anticonvulsant activity in CF1 albino mouse assessed as protection against maximal electroshock-induced seizures at 30 mg/kg, po after 2 hrs. The data set is classed as functional.
The test system of data set [8] is Mus musculus. The data set is described as follows: Anticonvulsant activity in CF1 albino mouse assessed as protection against maximal electroshock-induced seizures at 30 mg/kg, po after 4 hrs. The data set is classed as functional.
For data set [9], the system named is Mus musculus. The data set is described as follows: Neurotoxicity in CF1 albino mouse assessed as motor impairment at 30 mg/kg, po after 0.25 hrs by rotarod test. The data set is classed as toxicity, organism-based. Also on record: dose 30 mg/kg, route oral. As to conditions: in vivo.
The test system of data set [10] is Mus musculus. The data set is described as follows: Neurotoxicity in CF1 albino mouse assessed as motor impairment at 30 mg/kg, po after 0.5 hrs by rotarod test. The data set is classed as toxicity, organism-based. Details: dose 30 mg/kg, route oral. Conditions: in vivo.
The test system of data set [11] is Mus musculus. The data set is described as follows: Neurotoxicity in CF1 albino mouse assessed as motor impairment at 30 mg/kg, po after 1 hr by rotarod test. The data set is classed as toxicity, organism-based. Details: dose 30 mg/kg, route oral. Conditions: in vivo.
The test system of data set [12] is Mus musculus. The data set is described as follows: Neurotoxicity in CF1 albino mouse assessed as motor impairment at 30 mg/kg, po after 2 hrs by rotarod test. The data set is classed as toxicity, organism-based. Conditions: in vivo. Also on record: dose 30 mg/kg, route oral.
In data set [13] the test system is Mus musculus. The data set is described as follows: Neurotoxicity in CF1 albino mouse assessed as motor impairment at 30 mg/kg, po after 4 hrs by rotarod test. The data set is classed as toxicity, organism-based. Details: dose 30 mg/kg, route oral. Conditions: in vivo.
The subject of data set [14] is Mus musculus. Description: Anticonvulsant activity in ip dosed CF1 albino mouse assessed as inhibition of maximal electroshock-induced seizures after 4 hrs. The data set is classed as functional.
Data set [15] deals with Mus musculus. The data set is described as follows: Neurotoxicity in ip dosed CF1 albino mouse assessed as ability to maintain equilibrium for 1 min on […] after 4 hrs by rotarod test. The data set is classed as toxicity, organism-based. As to conditions: in vivo.
In data set [16] the test system is Mus musculus. Description: Anticonvulsant activity in CF1 albino mouse assessed as protection against maximal electroshock-induced seizures at 30 mg/kg, po after 0.5 hrs. The data set is classed as functional.
The subject of data set [17] is Mus musculus. The data set is described as follows: Anticonvulsant activity in ip dosed CF1 albino mouse assessed as inhibition of maximal electroshock-induced seizures after 0.5 hrs. The data set is classed as functional.
Data set [18] relates to Mus musculus. Description: Anticonvulsant activity in CF1 albino mouse assessed as protection against maximal electroshock-induced seizures at 30 mg/kg, po after 0.25 hrs. The data set is classed as functional.

Activity data for 18 compounds are collected here from ChEMBL document CHEMBL1137686, “Synthesis and anticonvulsant activity of new N-[(4-arylpiperazin-1-yl)-alkyl] derivatives of 3-phenyl-pyrrolidine-2,5-dione” (Eur J Med Chem, 2009).

SMILES strings stand for the structures. Activity calls are given as the source filed them. No cut-off for these calls is given here.

On to `O=C1CC(c2ccccc2C(F)(F)F)C(=O)N1CCN1CCN(c2ccccc2F)CC1` (stereo unspecified), for which the result in the data set on Mus musculus [1] and in the data set on Mus musculus [2] was inactive. Moreover, the Activity entry in the data set on Mus musculus [3] and in the data set on Mus musculus [4] was “Non-toxic” throughout.
In the case of `O=C1CC(c2ccccc2C(F)(F)F)C(=O)N1CCN1CCN(c2ccccc2)CC1` (stereo unspecified), the result in the data set with Mus musculus [1] and in the data set with Mus musculus [2] was inactive. Moreover, the Activity entry in the data set on Mus musculus [3] and in the data set on Mus musculus [4] was “Non-toxic” each time.
Consider `Cc1ccccc1C1CC(=O)N(CN2CCN(c3ccccc3F)CC2)C1=O` (stereo unspecified), for which the result with Mus musculus [1] and in the data set on Mus musculus [2] was inactive. Further, the Activity with Mus musculus [5] is 300 mg/kg; in the data set with Mus musculus [4] it was “Non-toxic”.
With `O=C1CC(c2ccccc2C(F)(F)F)C(=O)N1CN1CCN(c2ccccc2F)CC1` (stereo unspecified), the Activity in the data set with Mus musculus [6] is reported as 25%; with Mus musculus [8], 25%; in the data set on Mus musculus [9], “Non-toxic”; with Mus musculus [10] it was “Non-toxic”; with Mus musculus [11], “Non-toxic”; in the data set with Mus musculus [12], “Non-toxic”. The Activity result with Mus musculus [13] is “Non-toxic”; in the data set with Mus musculus [14], 30 mg/kg; in the data set on Mus musculus [15] it was 300 mg/kg; with Mus musculus [5], 100 mg/kg; in the data set on Mus musculus [16] it was 25%. Besides, the result in the data set with Mus musculus [7] and in the data set with Mus musculus [1] was inactive.
Regarding `Cc1ccccc1C1CC(=O)N(CCN2CCN(c3ccccc3F)CC2)C1=O` (stereo unspecified), the Activity in the data set on Mus musculus [14] was 300 mg/kg; in the data set on Mus musculus [5] it was 300 mg/kg; in the data set with Mus musculus [4] it was “Non-toxic”. Moreover, the outcome in the data set on Mus musculus [1] was inactive.
Regarding `Cc1ccccc1C1CC(=O)N(CCN2CCN(c3ccccc3)CC2)C1=O` (stereo unspecified), the outcome with Mus musculus [1] and with Mus musculus [2] was inactive. Besides, the Activity is 300 mg/kg with Mus musculus [5] and “Non-toxic” with Mus musculus [4].
Turning to `O=C1CC(c2ccccc2C(F)(F)F)C(=O)N1CCCN1CCN(c2cccc(Cl)c2)CC1` (stereo unspecified), the Activity was 100 mg/kg in the data set on Mus musculus [17], 100 mg/kg in the data set on Mus musculus [14], 300 mg/kg in the data set on Mus musculus [15] and 100 mg/kg in the data set with Mus musculus [5].
Consider `COc1ccccc1N1CCN(CCCN2C(=O)CC(c3ccccc3C(F)(F)F)C2=O)CC1` (stereo unspecified), for which the outcome in the data set with Mus musculus [1] and in the data set on Mus musculus [2] was inactive. Also, the Activity in the data set with Mus musculus [15] was determined as 300 mg/kg; in the data set with Mus musculus [5], 100 mg/kg.
Turning to `Cc1ccccc1C1CC(=O)N(CCN2CCN(c3cccc(C(F)(F)F)c3)CC2)C1=O` (stereo unspecified), the Activity in the data set with Mus musculus [17] was 300 mg/kg; in the data set on Mus musculus [14], 300 mg/kg; in the data set with Mus musculus [3], “Non-toxic”; in the data set with Mus musculus [4], “Non-toxic”.
On to `Cc1ccccc1C1CC(=O)N(CCCN2CCN(c3cccc(Cl)c3)CC2)C1=O` (stereo unspecified), for which the outcome in the data set on Mus musculus [6], in the data set with Mus musculus [8], in the data set with Mus musculus [18] and in the data set with Mus musculus [16] was inactive. The Activity in the data set on Mus musculus [7] was 25%; with Mus musculus [9], “Non-toxic”; in the data set with Mus musculus [10], “Non-toxic”; in the data set with Mus musculus [11], “Non-toxic”; in the data set on Mus musculus [12], “Non-toxic”; in the data set on Mus musculus [13], “Non-toxic”. Also, the Activity was 300 mg/kg with Mus musculus [17], 100 mg/kg in the data set on Mus musculus [14], 300 mg/kg in the data set on Mus musculus [5] and “Non-toxic” in the data set on Mus musculus [4].
`COc1ccccc1N1CCN(CCCN2C(=O)CC(c3ccccc3C)C2=O)CC1` (stereo unspecified): the outcome in the data set with Mus musculus [1] and in the data set with Mus musculus [2] was inactive. For the same compound, the figures for the Activity with Mus musculus [5] and with Mus musculus [4] were 100 mg/kg and “Non-toxic”, respectively.
Consider `O=C1CC(c2ccccc2C(F)(F)F)C(=O)N1CN1CCN(c2cccc(Cl)c2)CC1` (stereo unspecified), for which the Activity in the data set with Mus musculus [6] is recorded as 50%; with Mus musculus [7], 100%; with Mus musculus [8], 100%; with Mus musculus [9], “Non-toxic”; in the data set on Mus musculus [10] it was “Non-toxic”; in the data set with Mus musculus [11], “Non-toxic”. Also, the Activity entry in the data set with Mus musculus [12] is “Non-toxic”; in the data set on Mus musculus [13], “Non-toxic”; in the data set with Mus musculus [14] it was 100 mg/kg; with Mus musculus [15], 100 mg/kg; in the data set on Mus musculus [5] it was 100 mg/kg; in the data set with Mus musculus [16], 25%. Further, the outcome in the data set on Mus musculus [1] and in the data set with Mus musculus [18] was inactive.
Consider `O=C1CC(c2ccccc2C(F)(F)F)C(=O)N1CCN1CCN(c2cccc(Cl)c2)CC1` (stereo unspecified), for which the result with Mus musculus [6], in the data set on Mus musculus [7], in the data set on Mus musculus [8], with Mus musculus [1], in the data set on Mus musculus [18] and in the data set with Mus musculus [16] was inactive. For the same compound, the Activity result in the data set on Mus musculus [9] is “Non-toxic”; in the data set with Mus musculus [10] it was “Non-toxic”; in the data set on Mus musculus [11], “Non-toxic”; in the data set with Mus musculus [12], “Non-toxic”; in the data set with Mus musculus [13], “Non-toxic”; in the data set with Mus musculus [14] it was 100 mg/kg. Further, the Activity entry in the data set on Mus musculus [3] and in the data set on Mus musculus [4] was “Non-toxic” each time.
As for `Cc1ccccc1C1CC(=O)N(CCCN2CCN(c3cccc(C(F)(F)F)c3)CC2)C1=O` (stereo unspecified), the result in the data set on Mus musculus [6], with Mus musculus [7], in the data set with Mus musculus [8], in the data set with Mus musculus [18] and in the data set on Mus musculus [16] was inactive. The Activity entry in the data set with Mus musculus [9] was “Non-toxic”; in the data set on Mus musculus [10], “Non-toxic”; in the data set with Mus musculus [11], “Non-toxic”; with Mus musculus [12] it was 25%; with Mus musculus [13], “Non-toxic”; in the data set on Mus musculus [17] it was 100 mg/kg. The Activity was 100 mg/kg with Mus musculus [14], “Non-toxic” in the data set on Mus musculus [3] and “Non-toxic” in the data set on Mus musculus [4].
Take `O=C1CC(c2ccccc2C(F)(F)F)C(=O)N1CN1CCN(c2cccc(C(F)(F)F)c2)CC1` (stereo unspecified): the Activity was 100 mg/kg with Mus musculus [17], 100 mg/kg with Mus musculus [14], 300 mg/kg in the data set with Mus musculus [5] and “Non-toxic” with Mus musculus [4].
On to `Cc1ccccc1C1CC(=O)N(CN2CCN(c3cccc(Cl)c3)CC2)C1=O` (stereo unspecified), for which the outcome in the data set with Mus musculus [1] and in the data set with Mus musculus [2] was inactive. Further, the Activity entry in the data set with Mus musculus [3] and with Mus musculus [4] was “Non-toxic” throughout.
For the compound `O=C1CC(c2ccccc2C(F)(F)F)C(=O)N1CCN1CCN(c2cccc(C(F)(F)F)c2)CC1` (stereo unspecified), the result in the data set on Mus musculus [1] and in the data set on Mus musculus [2] was inactive. The Activity result with Mus musculus [3] and in the data set on Mus musculus [4] was “Non-toxic” in each case.
`Cc1ccccc1C1CC(=O)N(CN2CCN(c3ccccc3)CC2)C1=O` (stereo unspecified): the Activity with Mus musculus [14] was 300 mg/kg; with Mus musculus [15] it was 300 mg/kg; in the data set on Mus musculus [5] it was 100 mg/kg. The result with Mus musculus [1] was inactive.
